# Laboratory results from patent US6673576B1, “Process for producing nucleic acids” (priority 1995, dated 2004).
# Tests used:
# [1] = target: T1, inosine-guanosine kinase derived from Exiguobacterium acetylicum (Exiguobacterium acetylicum, UniProt O24767); assay: Effect of metal ions on the purified kinase; assay type: biochemical; conditions: for inhibition of the enzyme by metal ions (in words): 1 mM metal ions; for Relative activity: Metal salts (1 mM) present in the reaction mixture, not added = 100
# Procedure: (§1) Fifty microliter of this reaction mixture was used as a basic composition and the reaction was carried out at 30° C. for 10 minutes. The enzyme had the following properties.
# [2] = target: T1, inosine-guanosine kinase derived from Exiguobacterium acetylicum; assay: Phosphate donor specificity (nucleoside triphosphates) of the purified kinase; assay type: biochemical; conditions: for use as phosphate donor (in words): 5 mM nucleoside triphosphate; for Relative activity: Nucleoside triphosphate (5 mM) instead of ATP, ATP = 100
# Procedure: as §1
# The reaction was performed by using 5 mM of each of various nucleoside triphosphates instead of ATP, and the possible phosphate donors were examined.
# [3] = target: T1, inosine-guanosine kinase derived from Exiguobacterium acetylicum; assay: Metal requirement of the purified kinase; assay type: biochemical; conditions: for Relative activity: Metal salts (5 mM) instead of magnesium chloride, MgCl2 = 100; for metal requirement (in words): metal ions replacing magnesium chloride
# Procedure: as §1
# The reaction was performed by changing magnesium chloride to various metal ions in the reaction solution.
# [4] = target: T1, inosine-guanosine kinase derived from Exiguobacterium acetylicum; assay: Substrate specificity (nucleoside as phosphate receptor) of the purified kinase; assay type: biochemical; conditions: for Relative activity: Nucleoside (0.5 mM) instead of guanosine, [γ-32P]-ATP, guanosine = 100; for use as phosphate receptor (in words): 0.5 mM nucleoside
# Procedure: as §1
# The reaction was performed by using 0.5 mM of each of various nucleosides instead of guanosine and [Υ-^32P]-ATP instead of ATP. The thus-formed nucleoside 5′-phosphate was measured.
# [5] = pH and temperature optimum and stability of the purified kinase; assay type: biochemical, Exiguobacterium acetylicum
# Procedure: as §1
# The reaction was performed by changing the buffer to 100 mM of sodium acetate-acetic acid buffer (pH 4.2-5.6), 2-morphorinoethanesulfonic acid (hereinafter referred to as “MES”)-sodium hydroxide buffer (pH 5.4-6.3), 3-morphorinopropanesulfonic acid (MOPS)-sodium hydroxide buffer (pH 6.3-7.2), Tris-hydrochloride buffer (pH 7.2-8.8), cyclohexylaminopropanesulfonic acid (hereinafter referred to as “CAPS”)- sodium hydroxide buffer (pH 8.8-10.4) or glycine-sodium hydroxide buffer (pH 10.3-11.0). The optimum pH was between 7.7 and 9.9.
# The enzyme was treated at room temperature for 30 minutes with 250 mM sodium acetate-acetate buffer ([…]), MES-sodium hydroxide buffer (pH 5.4-6.4), MOPS-sodium hydroxide buffer (pH 6.3-7.3), Tris-hydrochloride buffer (pH 7.2-8.8), CAPS-sodium hydroxide buffer (pH 8.9-10.4) or glycine-sodium hydroxide buffer (pH 10.5-13.3), each containing 2.5 mg/ml of bovine- serum albumin, 25 mM potassium chloride, 0.25 mM dithiothreitol and 5% glycerol. Then, the activity of the enzyme was measured. As a result, the activity of the enzyme was stable within the pH range between 6.7 and 12.1
# The reaction was performed within the temperature range between 16° C. and 60° C. […]
# [6] = substrate: Nc1ncnc2c1ncn2[C@@H]1O[C@H](COP(=O)(O)OP(=O)(O)OP(=O)(O)O)[C@@H](O)[C@H]1O; assay: Km values of the purified kinase; assay type: biochemical, Exiguobacterium acetylicum; conditions: other: for ATP when guanosine was used as a substrate; pH 7.5; 30.0 °C
# Procedure: as §1
# [7] = substrate: OC[C@H]1O[C@@H](n2cnc3c(O)ncnc32)[C@H](O)[C@@H]1O; assay: Km values of the purified kinase; assay type: biochemical, Exiguobacterium acetylicum; conditions: other: substrate concentration varied; pH 7.5; 30.0 °C
# Procedure: as §1
# [8] = substrate: Nc1nc2c(ncn2[C@@H]2O[C@H](CO)[C@@H](O)[C@H]2O)c(=O)[nH]1; assay: Km values of the purified kinase; assay type: biochemical, Exiguobacterium acetylicum; conditions: other: substrate concentration varied; pH 7.5; 30.0 °C
# Procedure: as §1
molecule,measurement,setting,value
[Cl][Hg][Cl] [HgCl2],inhibition of the enzyme by metal ions (in words),[1],strongly inhibited
same,Relative activity,[1],22%
Nc1ncnc2c1ncn2[C@H]1C[C@H](O)[C@@H](COP(=O)(O)OP(=O)(O)OP(=O)(O)O)O1 [2′-deoxyadenosine triphosphate],use as phosphate donor (in words),[2],used as the phosphate donor
same,Relative activity,[2],71%
O.O.O.O.O.O.O.O=S(=O)([O-])[O-].[Fe+2] [FeSO4.7H2O],Relative activity,[3],24%
same,metal requirement (in words),[3],the reaction proceeded
same,Relative activity,[1],95%
Nc1ccn([C@@H]2O[C@H](COP(=O)(O)OP(=O)(O)OP(=O)(O)O)[C@@H](O)[C@H]2O)c(=O)n1 [cytidine triphosphate],Relative activity,[2],6%
O=c1[nH]c(=O)c2ncn([C@@H]3O[C@H](CO)[C@@H](O)[C@H]3O)c2[nH]1 [xanthosine],Relative activity,[4],0%
O=c1ccn([C@@H]2O[C@H](COP(=O)(O)OP(=O)(O)OP(=O)(O)O)[C@@H](O)[C@H]2O)c(=O)[nH]1 [uridine triphosphate],Relative activity,[2],4%
O.O.O.O.O.O.O.O=S(=O)([O-])[O-].[Mg+2] [MgSO4.7H2O],Relative activity,[3],107%
same,Relative activity,[1],110%
O.O.O.O.O.O.[Cl-].[Cl-].[Co+2] [CoCl2.6H2O],Relative activity,[3],36%
same,metal requirement (in words),[3],the reaction proceeded
same,Relative activity,[1],103%
Nc1nc2c(ncn2[C@@H]2O[C@H](CO)[C@@H](O)[C@H]2O)c(=O)[nH]1 [guanosine],use as phosphate receptor (in words),[4],used as a phosphate receptor
same,Relative activity,[4],100%
Nc1ncnc2c1ncn2[C@@H]1O[C@H](COP(=O)(O)OP(=O)(O)OP(=O)(O)O)[C@@H](O)[C@H]1O [adenosine triphosphate],use as phosphate donor (in words),[2],used as the phosphate donor
same,Relative activity,[2],100%
[Ba+2].[Cl-].[Cl-] [BaCl2],Relative activity,[1],106%
O.O.[Ca+2].[Cl-].[Cl-] [CaCl2.2H2O],Relative activity,[3],1%
same,Relative activity,[1],71%
Nc1ncnc2c1ncn2[C@H]1C[C@H](O)[C@@H](CO)O1 [2′-deoxyadenosine],Relative activity,[4],0%
[Cl-].[Cl-].[Zn+2] [ZnCl2],Relative activity,[3],1%
same,inhibition of the enzyme by metal ions (in words),[1],also inhibited
same,Relative activity,[1],58%
O.O.[Cl][Cu][Cl] [CuCl2.2H2O],inhibition of the enzyme by metal ions (in words),[1],strongly inhibited
same,Relative activity,[1],25%
Nc1ncnc2c1ncn2[C@@H]1O[C@H](CO)[C@@H](O)[C@H]1O [adenosine],Relative activity,[4],0%
OC[C@H]1O[C@@H](n2cnc3c(O)ncnc32)[C@H](O)[C@@H]1O [inosine],use as phosphate receptor (in words),[4],used as a phosphate receptor
same,Relative activity,[4],5%
O.O.O.O.O.O.[Cl][Ni][Cl] [NiCl2.6H2O],Relative activity,[3],1%
same,Relative activity,[1],113%
O.O.O.O.O.O.[Cl-].[Cl-].[Mg+2] [MgCl2.6H2O],Relative activity,[3],100%
same,metal requirement (in words),[3],the reaction proceeded
O.O.O.O.[Cl][Mn][Cl] [MnCl2.4H2O],Relative activity,[3],55%
same,metal requirement (in words),[3],the reaction proceeded
same,Relative activity,[1],81%
Nc1nc2c(ncn2[C@H]2C[C@H](O)[C@@H](CO)O2)c(=O)[nH]1 [2′-deoxyguanosine],use as phosphate receptor (in words),[4],used as a phosphate receptor
same,Relative activity,[4],4%
Nc1nc2c(ncn2[C@@H]2O[C@H](COP(=O)(O)OP(=O)(O)OP(=O)(O)O)[C@@H](O)[C@H]2O)c(=O)[nH]1 [guanosine triphosphate],use as phosphate donor (in words),[2],used as the phosphate donor
same,Relative activity,[2],59%
Nc1nc2c(ncn2[C@H]2C[C@H](O)[C@@H](COP(=O)(O)OP(=O)(O)OP(=O)(O)O)O2)c(=O)[nH]1 [2′-deoxyguanosine triphosphate],use as phosphate donor (in words),[2],used as the phosphate donor
same,Relative activity,[2],61%
[Cl][Cd][Cl] [CdCl2],inhibition of the enzyme by metal ions (in words),[1],also inhibited
same,Relative activity,[1],43%
inosine-guanosine kinase derived from Exiguobacterium acetylicum (Exiguobacterium acetylicum) (protein) MNKIAVIGKVFVDIKGTSFAPLHKDAKNVGDITFSNGGTGRNVAQNLAVLGNEVRFISTVTNDQIGVGVLDELKSYGANVDHVEMLEDHGMGMWLAVMDNEGDLQTSISKQPDAKLLEEAILRQSIYALDGVDAVAIDLDLSVTVLERLIHLCRKMELPLFGVCGHLSVIERNRHLLQGFTGFICSREEAEILSDLSIVTVEDAIHVANELAKKGAPFTVVTMSELGAVYVDRRTATSGHVGTKKVKVVDSTGAGDSFFSAVLSELTQEKSAEEALKLGMKVAAEVIASTENGLVPEMLDALQ,residual activity maintained,[5]; treatment at 25° C. or lower for 30 minutes,≥ 50%
same,temperature at which the enzyme was inactivated,[5]; treatment for 30 minutes at 4 to 60° C.,≥ 40 °C
same,Km,[6],1.6 mM
same,Km,[7],1 mM
same,Km,[8],0.03 mM
